Measured values as given in patent publication US20260035376A1, “COMPOSITIONS AND METHODS FOR INHIBITION OF RAS” (TheRas, Inc., priority 2022, published 2026).

How the values were obtained:
[1] = target: T1, Avi-KRAS G12D (1-169) GppNHp/RAF1 RBD-3×FLAG (52-151) (Homo sapiens, UniProt P01116, G12D); test: Disrupting RAS-effector binding HTRF assay, Raf1 RBD-KRAS G12D-GppNHp; details: PPI HTRF, 50 nM Avi-KRAS G12D GppNHp, compound titration 30-0.0045 μM; read-out: Raf1 RBD-KRAS G12D-GppNHp disruption
T1 construct: 50 nM Avi-KRAS G12D (1-169) GppNHp/RAF1 RBD-3×FLAG (52-151)
T1 sequence (P01116 1-169 isoform P01116-2 G12D limits assumed): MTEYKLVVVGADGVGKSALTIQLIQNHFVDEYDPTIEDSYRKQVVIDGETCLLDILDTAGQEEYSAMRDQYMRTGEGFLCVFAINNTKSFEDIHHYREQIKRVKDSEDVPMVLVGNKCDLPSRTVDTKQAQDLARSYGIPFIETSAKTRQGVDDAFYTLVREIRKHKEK
Experimental: (§1) A protein:protein interaction (PPI) Homogeneous Time Resolved Fluorescence (HTRF) assay was used to determine the effectiveness of compounds of the present disclosure in disrupting KRAS protein and effector RAF1 binding.
(§2) The HTRF assay used the following reagents and proteins: (i) 50 nM Avi-KRAS G12D (1-169) GppNHp/RAF1 RBD-3×FLAG (52-151); (ii) 50 nM Avi-KRAS G12R (1-169) GppNHp/RAF1 RBD-3×FLAG (52-151); (iii) 50 nM Avi-KRAS G12V (1-169) GppNHp/RAF1 RBD-3×FLAG (52-151), (iv) 50 nM Avi-KRAS WT (1-169) GppNHp/RAF1 RBD-3×FLAG (52-151); and (v) 75 nM Avi-RAF1 RBD-3×FLAG. The assay buffer included: 50 mM Tris pH 7.5, 100 mM NaCl, 5 mM MgCl2, 0.1% BSA, […], 10% DMSO. The bead buffer included: 50 mM Tris pH 7.5, 0.01% o Tween 20. Assay volume of 20 μL was used in a 384 well plate-low volume format. Compound titration: 30-0.0045 μM, 3× dilution series.
(§3) The HTRF assay employed the following protocol:
(§4) Compounds were dispensed in assay plate (384-well, Grenier Bione #784075) using Echo (model 555) with dose response settings: 200 nL final volume, titration from 30 μM as a 10-point dilution series. Protein mix was prepared in assay buffer, and dispensed on plates, 10 μL per well, then incubated for 1 h at room temperature, with 700 rpm shaking. Reagents mix was prepared and dispensed on plates, 10 μL per well, then incubated for 1 h at room temperature, with 700 rpm shaking.
(§5) Plates were analyzed on an Envision plate reader using the following setting: Excitation 320 nm, Bandwidth 75 nM; Emission 615 nm, Bandwidth 85 nM, Gain 100%, Flashes 100, Lag 60 μs. Data were reported as percentage of activity, with DMSO as 100%. Data were plotted and analyzed using Prism 8.
(§6) The biochemical Raf1-KRAS G12D/G12R/G12V/WT-GppNHP disruption assay IC50 of selected compounds described herein are shown in Table 4.

[2] = target: T2, Avi-KRAS G12V (1-169) GppNHp/RAF1 RBD-3×FLAG (52-151) (Homo sapiens, UniProt P01116, G12V); test: Disrupting RAS-effector binding HTRF assay, Raf1 RBD-KRAS G12V-GppNHp; details: PPI HTRF, 50 nM Avi-KRAS G12V GppNHp, compound titration 30-0.0045 μM; read-out: Raf1 RBD-KRAS G12V-GppNHp disruption
T2 construct: 50 nM Avi-KRAS G12V (1-169) GppNHp/RAF1 RBD-3×FLAG (52-151)
T2 sequence (P01116 1-169 isoform P01116-2 G12V limits assumed): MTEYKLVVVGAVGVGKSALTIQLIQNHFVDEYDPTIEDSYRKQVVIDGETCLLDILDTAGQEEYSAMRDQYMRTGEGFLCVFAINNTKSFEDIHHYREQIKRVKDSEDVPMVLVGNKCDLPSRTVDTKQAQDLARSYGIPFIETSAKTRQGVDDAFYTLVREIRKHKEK
Experimental: as §1, §2, §3, §4, §5, §6

[3] = target: T3, Avi-KRAS G12R (1-169) GppNHp/RAF1 RBD-3×FLAG (52-151) (Homo sapiens, UniProt P01116, G12R); test: Disrupting RAS-effector binding HTRF assay, Raf1 RBD-KRAS G12R-GppNHp; details: PPI HTRF, 50 nM Avi-KRAS G12R GppNHp, compound titration 30-0.0045 μM; read-out: Raf1 RBD-KRAS G12R-GppNHp disruption
T3 construct: 50 nM Avi-KRAS G12R (1-169) GppNHp/RAF1 RBD-3×FLAG (52-151)
T3 sequence (P01116 1-169 isoform P01116-2 G12R limits assumed): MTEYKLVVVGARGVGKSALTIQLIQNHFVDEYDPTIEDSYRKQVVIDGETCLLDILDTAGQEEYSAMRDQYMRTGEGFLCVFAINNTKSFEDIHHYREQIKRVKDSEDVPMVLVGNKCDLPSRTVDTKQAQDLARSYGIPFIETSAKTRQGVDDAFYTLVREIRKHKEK
Experimental: as §1, §2, §3, §4, §5, §6

[4] = target: T4, Avi-KRAS WT (1-169) GppNHp/RAF1 RBD-3×FLAG (52-151) (Homo sapiens, UniProt P01116); test: Disrupting RAS-effector binding HTRF assay, Raf1 RBD-KRAS WT-GppNHp; details: PPI HTRF, 50 nM Avi-KRAS WT GppNHp, compound titration 30-0.0045 μM; read-out: Raf1 RBD-KRAS WT-GppNHp disruption
T4 construct: 50 nM Avi-KRAS WT (1-169) GppNHp/RAF1 RBD-3×FLAG (52-151)
T4 sequence (P01116 1-169 isoform P01116-2 limits assumed): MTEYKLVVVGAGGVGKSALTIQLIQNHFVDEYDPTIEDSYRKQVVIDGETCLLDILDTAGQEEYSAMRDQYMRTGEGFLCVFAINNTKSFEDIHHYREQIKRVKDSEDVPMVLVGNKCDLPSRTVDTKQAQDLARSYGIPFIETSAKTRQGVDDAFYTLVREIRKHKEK
Experimental: as §1, §2, §3, §4, §5, §6

[5] = tested on: KRAS G12D protein/effector signaling in GP2d cells; test: Cell-based pERK HTRF assay in GP2d cell; details: 1 h, 60 min incubation
Experimental: A pERK assay (Perkin Elmer) was used to determine the effectiveness of compounds in disrupting KRAS G12D protein/effector signaling in cells.
On Day 1, cells (GP2d) were seeded into 96-well plates at 3×10^4 cells/well in 80 μL complete growth media (DMEM, 10% FBS).
(§7) On Day 2, cells were treated with compounds at 0.25% DMSO. The source plate was created with compounds diluted in media at 5-fold the final assay concentration. The compounds were run in a 9-point concentration curve starting at 1 M, with a half-log dilution between concentrations. 20 μL was transferred onto the cell plates (final volume in wells was 100 μL). Plates were harvested after 60 min incubation by aspirating media and adding kit-supplied 1× supplemented lysis buffer to all wells (50 μL per well). Plates were then placed on a plate shaker and incubated at 850 rpm for an additional 30 min.
Antibody mixture solution was prepared by diluting aliquoted d2 and Eu Cryptate antibodies 1:20 in kit supplied detection buffer, and mixing the diluted antibodies solutions (1:1 v:v). 4 μL of this solution was then added to a 384-well detection plate (Perkin Elmer; 6008230).
(§8) Samples were homogenized by pipetting up and down and then transferred (16 μL of cell lysates) from the 96-well cell culture plate to two wells of the HTRF 384-well detection plate containing the antibody solution. Plates were centrifuged (524 g for 1 min) and allowed to incubate between 4 and 24 h at room temperature. Maximum signal was reached after 4 h incubation time and remained stable over a period of 24 hours. Therefore, readings could be made between 4 and 24 h of incubation. Plates were centrifuged again (524 g for 1 min), then analyzed on the EnVision plate reader using the following settings: Excitation 320 nm, Bandwidth 75 nm; Emission 615 nm, Bandwidth 85 nm; Gain 100%; Flashes 100; Lag 60 μs.

[6] = tested on: KRAS G12V protein/effector signaling in SW620 cells; test: Cell-based pERK HTRF assay in SW620 cell; details: Homo sapiens, SW-620, 1 h incubation
Experimental: pERK assay (Perkin Elmer) was used to determine the effectiveness of compounds in disrupting KRAS G12V protein/effector signaling in cells.
On Day 1, cells (SW620) were seeded into 96-well plates at 3×10^4 cells/well in 80 μL complete growth media (DMEM, 10% FBS).
as §7, with “10 μM,” for “1 M,”, “1 h” for “60 min”
Antibody mixture solution was prepared by diluting aliquoted d2 and Eu Cryptate antibodies 1:20 in kit supplied detection buffer, and mixing the diluted antibodies solutions (1:1 v:v). Four μL of this solution was then added to a 384-well detection plate (Perkin Elmer; 6008230).
as §8

SMILES	IC50 [1] [µM]	IC50 [2] [µM]	IC50 [3] [µM]	IC50 [4] [µM]	IC50 [5] [µM]	IC50 [6] [µM]
CC(=O)N(C)c1nc(N2C[C@H]3CC[C@@H](C2)N3)c2cc(C(F)(F)F)c(-c3ccc(F)c4sc(N)c(C#N)c34)c(F)c2n1 [Compound 21, N-(7-(2-amino-3-cyano-7-fluorobenzo[b]thiophen-4-yl)-4-((1R,5S)-3,8-diazabicyclo[3.2.1]octan-3-yl)-8-fluoro-6-(trifluoromethyl)quinazolin-2-yl)-N-methylacetamide]	> 10	> 10	> 10	1 to 10	0.1 to 1	–
Cc1nc(N2C[C@H]3CC[C@@H](C2)N3)c2cc(C(F)(F)F)c(-c3ccc(F)c4sc(N)c(C#N)c34)c(F)c2n1 [Compound 22, 4-(4-((1R,5S)-3,8-diazabicyclo[3.2.1]octan-3-yl)-8-fluoro-2-methyl-6-(trifluoromethyl)quinazolin-7-yl)-2-amino-7-fluorobenzo[b]thiophene-3-carbonitrile]	1 to 10	> 10	> 10	1 to 10	≤ 0.1	–
CCCc1nc(N2CC3CCC(C2)N3)c2cc(C(F)(F)F)c(-c3ccc(F)c4sc(N)c(C#N)c34)c(F)c2n1 [Compound 23]	1 to 10	> 10	> 10	1 to 10	≤ 0.1	–
N#Cc1c(N)sc2c(F)ccc(-c3c(C(F)(F)F)cc4c(N5CC6CCC(C5)N6)nc(OC[C@H]5CNC(=O)C5)nc4c3F)c12 [Compound 24]	0.1 to 1	1 to 10	1 to 10	0.1 to 1	≤ 0.1	–
N#Cc1c(N)sc2c(F)ccc(-c3c(C(F)(F)F)cc4c(N5CC6CCC(C5)N6)nc(N5CCNC(=O)CC5)nc4c3F)c12 [Compound 25]	1 to 10	> 10	> 10	1 to 10	0.1 to 1	–
N#Cc1c(N)sc2c(F)ccc(-c3c(C(F)(F)F)cc4c(N5CC6CCC(C5)N6)nc(N5CCNS(=O)(=O)CC5)nc4c3F)c12 [Compound 26]	1 to 10	> 10	> 10	1 to 10	0.1 to 1	–
CN(C(=O)c1cnn(C)c1)c1nc(N2CC3CCC(C2)N3)c2cc(C(F)(F)F)c(-c3ccc(F)c4sc(N)c(C#N)c34)c(F)c2n1 [Compound 27]	> 10	> 10	> 10	1 to 10	0.1 to 1	–
N#Cc1c(N)sc2c(F)ccc(-c3c(C(F)(F)F)cc4c(N5CC6CCC(C5)N6)nc(OC[C@@H]5CC(=O)N5)nc4c3F)c12 [Compound 39]	1 to 10	> 10	> 10	1 to 10	0.1 to 1	–
CN(c1ncnc2c(F)c(-c3ccc(F)c4sc(N)c(C#N)c34)c(C(F)(F)F)cc12)[C@@H]1CCNC1 [Compound 58]	1 to 10	> 10	> 10	> 10	0.1 to 1	–
COc1nc(N(C)[C@@H]2CCNC2)c2cc(C(F)(F)F)c(-c3ccc(F)c4sc(N)c(C#N)c34)c(F)c2n1 [Compound 59]	1 to 10	> 10	> 10	> 10	0.1 to 1	–
COc1nc(N2C[C@@H](C)NC[C@@H]2C)c2cc(C(F)(F)F)c(-c3ccc(F)c4sc(N)c(C#N)c34)c(F)c2n1 [Compound 60]	> 10	> 10	> 10	> 10	> 1	–
C[C@@H]1CN(c2ncnc3c(F)c(-c4ccc(F)c5sc(N)c(C#N)c45)c(C(F)(F)F)cc23)[C@@H](C)CN1 [Compound 64]	1 to 10	> 10	> 10	> 10	≤ 0.1	–
CO[C@H](C)COc1nc(N2CC3CCC(C2)N3)c2cc(C(F)(F)F)c(-c3ccc(F)c4sc(N)c(C#N)c34)c(F)c2n1 [Compound 66]	–	–	–	–	≤ 0.1	> 10
COC[C@@H](C)Oc1nc(N2CC3CCC(C2)N3)c2cc(C(F)(F)F)c(-c3ccc(F)c4sc(N)c(C#N)c34)c(F)c2n1 [Compound 67]	–	–	–	–	≤ 0.1	> 10
N#Cc1c(N)sc2c(F)ccc(-c3c(C(F)(F)F)cc4c(N5CC6CCC(C5)N6)nc(O[C@@H]5CCOC5)nc4c3F)c12 [Compound 68]	–	–	–	–	≤ 0.1	> 10
N#Cc1c(N)sc2c(F)ccc(-c3c(C(F)(F)F)cc4c(N5CC6CCC(C5)N6)nc(O[C@H]5CCOC5)nc4c3F)c12 [Compound 69]	–	–	–	–	≤ 0.1	> 10
N#Cc1c(N)sc2c(F)ccc(-c3c(C(F)(F)F)cc4c(N5CC6CCC(C5)N6)nc(OC5CCOCC5)nc4c3F)c12 [Compound 70]	–	–	–	–	≤ 0.1	> 10
COC[C@H](C)Oc1nc(N2CC3CCC(C2)N3)c2cc(C(F)(F)F)c(-c3ccc(F)c4sc(N)c(C#N)c34)c(F)c2n1 [Compound 71]	–	–	–	–	≤ 0.1	> 10
CO[C@@H](C)COc1nc(N2CC3CCC(C2)N3)c2cc(C(F)(F)F)c(-c3ccc(F)c4sc(N)c(C#N)c34)c(F)c2n1 [Compound 72]	–	–	–	–	≤ 0.1	> 10
